The source of these data is ChEMBL document CHEMBL1145766, “2-(Anilinomethyl)imidazolines as alpha1 adrenergic receptor agonists: alpha1a subtype selective 2'-heteroaryl compounds” (Bioorg Med Chem Lett, 2003).

Some results are limits rather than exact numbers.

The target in assay [1] is T1, Alpha-1B adrenergic receptor (Homo sapiens) (UniProt P35368).
T1 sequence (whole entry): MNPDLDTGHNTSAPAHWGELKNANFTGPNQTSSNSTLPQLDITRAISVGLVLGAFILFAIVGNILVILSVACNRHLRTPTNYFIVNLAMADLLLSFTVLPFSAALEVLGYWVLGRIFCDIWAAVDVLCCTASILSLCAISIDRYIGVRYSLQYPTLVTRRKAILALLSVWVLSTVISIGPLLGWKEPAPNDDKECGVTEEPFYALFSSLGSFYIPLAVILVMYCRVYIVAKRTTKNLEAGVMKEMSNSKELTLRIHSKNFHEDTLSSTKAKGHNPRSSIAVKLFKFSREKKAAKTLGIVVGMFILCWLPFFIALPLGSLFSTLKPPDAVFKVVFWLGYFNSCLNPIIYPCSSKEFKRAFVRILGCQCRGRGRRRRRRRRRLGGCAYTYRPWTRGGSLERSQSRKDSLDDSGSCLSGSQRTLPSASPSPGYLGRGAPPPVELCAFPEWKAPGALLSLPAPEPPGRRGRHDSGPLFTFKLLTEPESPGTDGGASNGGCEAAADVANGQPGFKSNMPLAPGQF
The assay can be described thus: Maximal response assayed via calcium mobilization to human alpha-1B adrenergic receptor compared to percent of the […] phenylephrine response. Format: functional. For orientation: Calcium assays in cells follow changes in intracellular calcium, usually with a dye or a luminescent sensor.

In assay [2] the target is T2, Alpha-1A adrenergic receptor (Homo sapiens, UniProt P35348).
T2 sequence (P35348 whole entry): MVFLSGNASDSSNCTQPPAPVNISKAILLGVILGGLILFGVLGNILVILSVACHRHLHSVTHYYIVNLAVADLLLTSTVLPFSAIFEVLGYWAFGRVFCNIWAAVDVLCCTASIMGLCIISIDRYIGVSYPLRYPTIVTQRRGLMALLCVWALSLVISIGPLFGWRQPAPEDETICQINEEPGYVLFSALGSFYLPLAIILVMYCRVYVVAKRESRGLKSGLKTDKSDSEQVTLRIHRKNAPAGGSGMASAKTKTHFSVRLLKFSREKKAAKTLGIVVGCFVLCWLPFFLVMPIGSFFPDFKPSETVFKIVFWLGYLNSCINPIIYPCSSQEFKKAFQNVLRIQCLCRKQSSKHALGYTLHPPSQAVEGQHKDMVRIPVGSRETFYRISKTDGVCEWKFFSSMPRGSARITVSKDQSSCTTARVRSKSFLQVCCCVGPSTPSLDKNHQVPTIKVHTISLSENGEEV
The assay can be described thus: Inhibitory concentration against radioligand binding to human Alpha-1A adrenergic receptor, expressed in rat 1 fibroblast cells. Format: cell-based.

Assay [3] deals with T3, Alpha-1B adrenergic receptor (Homo sapiens, UniProt P35368).
T3 sequence (P35368 whole entry): T1 sequence (whole entry)
The assay can be described thus: Inhibitory concentration against radioligand binding to human Alpha-1B adrenergic receptor, expressed in rat 1 fibroblast cells. Format: cell-based.

The target of assay [4] is T4, Alpha-1D adrenergic receptor (Homo sapiens, UniProt P25100).
T4 sequence (P25100 whole entry): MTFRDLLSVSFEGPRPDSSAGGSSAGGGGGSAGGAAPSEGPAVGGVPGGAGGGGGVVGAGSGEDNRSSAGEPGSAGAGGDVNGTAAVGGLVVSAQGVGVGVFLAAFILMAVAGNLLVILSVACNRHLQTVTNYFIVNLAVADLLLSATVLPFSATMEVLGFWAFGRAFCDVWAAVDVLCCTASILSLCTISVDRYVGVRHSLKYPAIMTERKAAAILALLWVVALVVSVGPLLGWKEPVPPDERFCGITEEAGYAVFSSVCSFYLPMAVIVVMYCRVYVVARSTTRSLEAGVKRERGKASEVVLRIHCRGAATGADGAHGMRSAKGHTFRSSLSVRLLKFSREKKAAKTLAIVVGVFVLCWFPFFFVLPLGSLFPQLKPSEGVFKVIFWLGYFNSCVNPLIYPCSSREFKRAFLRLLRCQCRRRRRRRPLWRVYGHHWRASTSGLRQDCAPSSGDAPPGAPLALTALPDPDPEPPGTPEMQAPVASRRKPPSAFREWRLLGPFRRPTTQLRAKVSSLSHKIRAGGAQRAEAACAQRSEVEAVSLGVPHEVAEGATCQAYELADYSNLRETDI
The assay can be described thus: Agonism of recombinant human alpha-1D adrenergic receptor, expressed in rat 1 fibroblast cells. The format is functional, cell-based.

Assay [5] addresses T5, Alpha-1A adrenergic receptor (Homo sapiens) (UniProt P35348).
T5 sequence (whole entry): T2 sequence (P35348 whole entry)
The assay can be described thus: Maximal response assayed via calcium mobilization to the human alpha-1A adrenergic receptor compared the percent of the […] phenylephrine response. The format is functional.

For assay [6], the target named is T2, Alpha-1A adrenergic receptor. The assay can be described thus: Agonism of human alpha-1A adrenergic receptor expressed in rat 1 fibroblast cells. The format is functional, cell-based.
Assay [7] concerns the target T4, Alpha-1D adrenergic receptor. The assay can be described thus: Inhibitory concentration against radioligand binding to human Alpha-1D adrenergic receptor, expressed in rat 1 fibroblast cells. Format: cell-based.
Assay [8] deals with T3, Alpha-1B adrenergic receptor. The assay can be described thus: Agonism of human alpha-1B adrenergic receptor, expressed in rat 1 fibroblast cells. The format is functional, cell-based.
The target in assay [9] is T6, Alpha-1D adrenergic receptor (Homo sapiens) (UniProt P25100).
T6 sequence (whole entry): T4 sequence (P25100 whole entry)
As to the kind of experiment: Maximal response via calcium mobilization towards Human Alpha-1D adrenergic receptor as percent relative to […] phenylephrine. Format: functional.

Assay [10] concerns the target T6, Alpha-1D adrenergic receptor (Homo sapiens). As to the kind of experiment: Maximal response via calcium mobilization towards Human Alpha-1D adrenergic receptor as percent rtelative to […] phenylephrine. Format: functional.
The target in assay [11] is T4, Alpha-1D adrenergic receptor. As to the kind of experiment: Inhibitory concentration against radioligand binding to human aAlpha-1D adrenergic receptor, expressed in rat 1 fibroblast cells. Format: cell-based.

In the case of `Cn1nccc1-c1ccccc1NCC1=NCCN1`, the Max response in [1] is 0%; in assay [5], 108%; in assay [9], 0%. The results for the half-maximal inhibitory concentration (IC50) in assay [2], in [3] and in [7] were 0.2 µM, 0.398 µM and 0.501 µM, respectively. For the same molecule, the half-maximal effective concentration (EC50) in assay [4] is above 100 µM; in assay [6], 0.01 µM; in assay [8], above 100 µM.
Turning to `FC(F)(F)Cn1nccc1-c1ccccc1NCC1=NCCN1`, the Max response in [1] was determined as 0%; in assay [5] it was 76%; in assay [9], 0%. Further, the EC50 is above 100 µM in assay [4], 0.316 µM in [6] and above 100 µM in assay [8].
As to `Cn1cc(-c2ccccc2NCC2=NCCN2)cn1`, the results for the Max response in [1], in assay [5] and in assay [9] were 0%, 39% and 0%, respectively. In addition, the EC50 is above 100 µM in assay [4], 0.398 µM in [6] and above 100 µM in assay [8].
On to `CC(C)n1ncnc1-c1ccccc1NCC1=NCCN1`, for which the Max response in assay [1] was 0%; in assay [5], 104%; in assay [10], 37%. In addition, the 50% effective concentration (EC50) in assay [4] is 3.16 µM; in assay [6], 0.00631 µM; in assay [8], above 100 µM.
Consider `CCn1nccc1-c1ccccc1NCC1=NCCN1`, for which the Max response in assay [1] amounted to 0%; in assay [5], 81%; in assay [9], 0%. The 50% effective concentration (EC50) in assay [4] is above 100 µM; in assay [6], 0.0631 µM; in assay [8] it was above 100 µM.
On to `Cn1ccnc1-c1ccccc1NCC1=NCCN1`, for which the Max response in [1] is 104%; in [5], 88%; in assay [9], 92%. The concentration giving a half-maximal response (EC50) in [4] is 0.2 µM; in assay [6], 0.00631 µM; in [8], 0.0398 µM.
For `c1ccc(-c2nc[nH]n2)c(NCC2=NCCN2)c1`, the figures for the Max response in assay [1], in assay [5] and in [10] were 100%, 135% and 123%, respectively. Also, the concentration giving a half-maximal response (EC50) in [4] is 0.00398 µM; in assay [6] it was 0.000794 µM; in assay [8] it was 0.00501 µM.
Consider `FC(F)(F)Cn1ncnc1-c1ccccc1NCC1=NCCN1`, for which the Max response was found to be 0% in assay [1], 91% in assay [5] and 0% in assay [10]. Also, the EC50 was above 100 µM in assay [4], 0.0794 µM in assay [6] and above 100 µM in assay [8].
`Cc1nc(-c2ccccc2NCC2=NCCN2)n(C)n1`: the values for the Max response in assay [1], in [5] and in assay [10] were 0%, 98% and 0%, respectively. Further, the EC50 was above 5.01 µM in [4], 1 µM in [6] and above 5.01 µM in assay [8].
Regarding `CCCCn1ncnc1-c1ccccc1NCC1=NCCN1`, the Max response in assay [1] is 83%; in [5], 86%; in [10], 66%. In addition, the concentration for a half-maximal effect (EC50) is 0.398 µM in assay [4], 0.2 µM in assay [6] and 0.2 µM in [8].
On to `CCCn1ncnc1-c1ccccc1NCC1=NCCN1`, for which the Max response was 74% in assay [1], 96% in assay [5] and 57% in assay [10]. The results for the EC50 in [4], in [6] and in [8] were 0.251 µM, 0.0126 µM and 0.316 µM, respectively.
`Cn1ccc(-c2ccccc2NCC2=NCCN2)n1`: the Max response in [1] came out at 33%; in assay [5], 116%; in assay [9], 29%. Moreover, the EC50 in assay [4] was 0.0158 µM; in assay [6], 0.00316 µM; in assay [8] it was 0.0501 µM.
For the molecule `Cn1cccc1-c1ccccc1NCC1=NCCN1`, the results for the Max response in assay [1], in assay [5] and in assay [9] were 0%, 103% and 32%, respectively. The values for the EC50 in assay [4], in assay [6] and in [8] were 0.251 µM, 0.02 µM and above 100 µM, respectively.
Regarding `CCn1ncnc1-c1ccccc1NCC1=NCCN1`, the Max response in assay [1] is 94%; in assay [5], 107%; in [10], 55%. In addition, the EC50 in assay [4] is 0.126 µM; in assay [6] it was 0.00126 µM; in assay [8] it was 0.0631 µM.
Turning to `CCn1cc(-c2ccccc2NCC2=NCCN2)cn1`, the Max response in [1], in assay [5] and in assay [9] was 0% in each case. Also, the EC50 in assay [4], in assay [6] and in assay [8] was above 100 µM each time.
Regarding `CCn1ccc(-c2ccccc2NCC2=NCCN2)n1`, the Max response was 0% in assay [1], 78% in [5] and 0% in [9]. Moreover, the results for the EC50 in assay [4], in assay [6] and in assay [8] were above 100 µM, 0.0251 µM and above 100 µM, respectively.
Regarding `c1ccc(-c2cc[nH]n2)c(NCC2=NCCN2)c1`, the figures for the Max response in assay [1], in assay [5] and in [10] were 95%, 104% and 54%, respectively. Also, the IC50 is 0.0251 µM in assay [2], 0.158 µM in [3] and 0.0398 µM in [11]. The EC50 in [4] is 0.02 µM; in assay [6], 0.001 µM; in assay [8] it was 0.00501 µM.
As for `CCn1cccc1-c1ccccc1NCC1=NCCN1`, the Max response came to 0% in assay [1], 93% in [5] and 0% in assay [9]. Further, the values for the concentration giving a half-maximal response (EC50) in assay [4], in assay [6] and in assay [8] were above 100 µM, 0.00251 µM and above 100 µM, respectively.
As for `Cc1n[nH]c(-c2ccccc2NCC2=NCCN2)n1`, the Max response came to 0% in assay [1], 87% in [5] and 0% in [10]. Further, the half-maximal effective concentration (EC50) in assay [4] was above 5.01 µM; in assay [6], 0.794 µM; in assay [8] it was above 5.01 µM.
For `Cc1ccc(-c2ccccc2NCC2=NCCN2)n1C`, the Max response in [1] worked out at 0%; in [5] it was 78%; in [9] it was 0%. The EC50 in assay [4] was above 100 µM; in assay [6] it was 0.0501 µM; in assay [8] it was above 100 µM.
Consider `Cn1ncnc1-c1ccccc1NCC1=NCCN1`, for which the Max response was found to be 93% in assay [1], 91% in assay [5] and 116% in [10]. The concentration giving a half-maximal response (EC50) is 0.0631 µM in [4], 0.002 µM in [6] and 0.0398 µM in assay [8].
As to `c1ccc(-c2cn[nH]c2)c(NCC2=NCCN2)c1`, the Max response was 72% in assay [1], 112% in assay [5] and 62% in assay [9]. For the same molecule, the figures for the 50% effective concentration (EC50) in assay [4], in assay [6] and in assay [8] were 0.02 µM, 0.00126 µM and 0.0794 µM, respectively.
For the molecule `CC(C)n1nccc1-c1ccccc1NCC1=NCCN1`, the Max response in assay [1], in [5] and in assay [9] was 0% throughout. Moreover, the EC50 in assay [4], in [6] and in assay [8] was above 100 µM throughout.
For `CCCn1nccc1-c1ccccc1NCC1=NCCN1`, the Max response in assay [1] was determined as 0%; in assay [5] it was 59%; in assay [9], 0%. For the same molecule, the 50% effective concentration (EC50) in assay [4] is above 100 µM; in [6] it was 0.251 µM; in assay [8] it was above 100 µM.

For orientation: IC50 means the concentration at which inhibition is half-maximal. High values mean a need for much substance, low ones inhibition by little substance. In general, EC50 refers to the concentration needed to bring the measured effect to its halfway point.
